Experimental data from patent publication US20260035385A1, “BENZO NITROGEN-CONTAINING HETEROAROMATIC RING DERIVATIVE AND USE THEREOF IN MEDICINE” (Xizang Haisco Pharmaceutical Co., Ltd., priority 2021, published 2026).

Assays:
[1] = system: complement alternative pathway; assay: Biological Test Example 2: complement alternative pathway inhibition, IBL alternative pathway kit, serum from healthy volunteers; type: biochemical, human; settings: LPS-coated plate, 37 °C 1 h, read-out: IC50 for inhibiting alternative pathway
Procedure: The inhibitory effect of the compounds on the complement alternative pathway was detected using the IBL alternative pathway kit (COMPL AP330 RUO). Serum from healthy volunteers was collected and 1 portion was diluted with a buffer of 20 mM EDTA in gelatin (0.15 mM CaCl2, 141 mM NaCl, 4.5 mM MgCl2, 4.2 mM HEPES, and 0.1% gelatin at pH 7.4) to 50% (v/v), and 1 portion was diluted to 50% (v/v) with a buffer of 20 mM EGTA in gelatin. The compounds were prepared in DMSO to a working solution 100 times the final concentration. Before use, 50% of the above serum was diluted 1/18 with the AP diluent in the kit. 1 part of the compound working solution (v/v) or DMSO (positive control PC) was added to 99 parts of the diluted serum containing EGTA for pretreatment for 30 min, and 1 part of DMSO (v/v) was added to 99 parts of the diluted serum containing EDTA, as negative control (NC). The serum pretreated with the above compounds (or DMSO) was added at […] to the LPS-coated 96-well plate, incubated at 37° C. for 1 h, and the plate was washed 3 times with washing solution in the kit; the conjugated chromogenic substrate was added according to the instruction in the kit, and the absorbance was read at 405 nm with a microplate reader. The inhibitory activity of the compounds on alternative pathway was calculated using the following formula.
OD^CPD was the OD value when the inhibitor was added, OD^NC was the OD value of the negative control, and OD^PC was the OD value of the positive control.
Graphpad was used to perform nonlinear regression on the final concentrations and inhibition rates of the compounds to obtain the IC50 of the compounds for inhibiting the alternative pathway.

[2] = Pharmacokinetic test in mice; type: in vivo; settings: male, C57, mouse, plasma, po, i.g. (10 mg/kg)
Procedure: Test objective: In this experiment, a single dose of test compounds was administered to C57 mice intravenously and intragastrically, the concentrations of the test compounds in plasma of mice were measured, and the pharmacokinetic characteristics of the test compounds in mice were evaluated.
Experimental animals: Male C57 mice, 20-25 g, 6-8 weeks old, 18 mice/compound. purchased from Chengdu Ddossy Experimental Animals Co., Ltd.
Experimental method: On the day of the experiment, 18 C57 mice were randomly grouped according to their body weight. The animals were fasted with water available for 12 to 14 hours one day before the administration of a test compound, and were fed 4 hours after the administration.
Sampling: Before and after the administration, 0.08 mL of blood sample was drawn from the orbit under isoflurane anesthesia, and placed in an EDTAK2 centrifuge tube. Centrifugation was carried out at 5000 rpm at 4° C. for 10 min, and the plasma was collected.
Time points for plasma collection in IV&PO group: 0, 5 min, 15 min, 30 min, 1 h, 2 h, 4 h, 6 h, 8h, and 24 h.
(§1) Before analysis and detection, all samples were stored at −60° C. The samples were analyzed quantitatively by LC-MS/MS.

[3] = Pharmacokinetic test of dogs; type: in vivo; settings: male, beagle, dog, plasma, po, i.g. (5 mg/kg)
Procedure: (§2) Test objective: In this experiment, a single dose of test compounds was administered to beagle dogs intravenously and intragastrically, and the concentrations of the test compounds in plasma of the beagle dogs were measured to evaluate pharmacokinetic characteristics of the test compounds in the beagle dogs.
Experimental animals: Male beagle dogs, 8-11 kg, 1-3 years old, 6 dogs/compound. purchased from Beijing Marshall Biotechnology Co. Ltd.
Experimental method: on the day of the test, 6 beagle dogs were randomly grouped according to their body weights. The animals were fasted with water available for 14 to 18 hours one day before the administration of a test compound, and were fed 4 hours after the administration.
Sampling: Before and after the administration, 1.0 mL of blood was taken from the jugular veins or limb veins, and placed in an EDTAK2 centrifuge tube. Centrifugation was carried out at 5000 rpm at 4° C. for 10 min, and the plasma was collected.
(§3) Time points for plasma collection in IV&PO group: 0, 5 min, 15 min, 30 min, 1 h, 2 h, 4 h, 6 h, 8h, 10 h, 12h, and 24 h.
as §1

[4] = Pharmacokinetic experiment in monkeys; type: in vivo, cynomolgus monkeys; settings: compared with the trifluoroacetate of LNP023, in words
Procedure: as §2, with “to cynomolgus monkeys” for “to beagle dogs”, “the monkeys” for “the beagle dogs”, “the monkeys.” for “the beagle dogs.”
Experimental animals: Male cynomolgus monkeys, 3-5 kg, 3-6 years old, 6 monkeys/compound. Purchased from Suzhou Xishan Biotechnology Inc.
Experimental method: on the day of the test, 6 monkeys were randomly grouped according to their body weights. The animals were fasted with water available for 14 to 18 hours one day before the administration of a test compound, and were fed 4 hours after the administration.
Sampling: before and after the administration, 1.0 mL of blood was taken from the limb veins, and placed in an EDTAK2 centrifuge tube. Centrifugation was carried out at 5000 rpm at 4° C. for 10 min, and the plasma was collected.
as §3, §1

Caco2 permeability test = type: in vitro ADME; settings: human; Caco-2 monolayer, 2 μM, 2 h, pH 7.4
Procedure: (§4) The experiment used a monolayer of Caco-2 cells incubated in triplicate in a 96-well Transwell plate. […] Acetonitrile containing internal standard was then added to precipitate the protein. […] The integrity of the cell monolayer after 2 h of incubation was assessed by leakage of Lucifer Yellow.

Caco-2 cells = assay: Caco2 permeability test; type: in vitro ADME; settings: Caco2, compared with the trifluoroacetate of LNP023, in words
Procedure: as §4

[5] = Stability in liver microsome (HLM); type: in vitro ADME, human; settings: 0.50 mg/mL microsomal protein, 1.00 μM, NADPH, 37 °C
Procedure: (§5) The total volume of the incubation system was 100 μL, the medium was 100 mM phosphate buffer (PBS, pH 7.4), including liver microsomal protein with a final concentration of 0.50 mg/mL, 1.00 μM test substance and 1.00 mM NADPH, 37° C. water bath was used for incubation, and 300 μL of ice-cold acetonitrile containing internal standard was added to terminate the reaction after 0, 5, 10, 20, 30, and 60 min of reaction, respectively. The negative control was incubated with heat-inactivated liver microsomes of the corresponding species, and the incubation time points were 0 and 60 min respectively. The LC/MS/MS method was used to detect the concentration of the test substance in the sample and the remaining rate of the compound was calculated.

[6] = Stability in liver microsome (CLM); type: in vitro ADME, cynomolgus monkey; settings: 0.50 mg/mL microsomal protein, 1.00 μM, NADPH, 37 °C
Procedure: as §5

[7] = Stability in liver microsome (DLM); type: in vitro ADME, dog; settings: 0.50 mg/mL microsomal protein, 1.00 μM, NADPH, 37 °C
Procedure: as §5

[8] = Stability in liver microsome (RLM); type: in vitro ADME, rat; settings: 0.50 mg/mL microsomal protein, 1.00 μM, NADPH, 37 °C
Procedure: as §5

[9] = Stability in liver microsome (MouLM); type: in vitro ADME, mouse; settings: 0.50 mg/mL microsomal protein, 1.00 μM, NADPH, 37 °C
Procedure: as §5

Q: Which IC50 [1] does the source give for `COc1cc(C)c2[nH]ccc2c1CN1CC[C@@H](C2CC2)C[C@H]1c1ccc(C(=O)O)cc1` [Trifluoroacetate of compound 5 (diastereomer 1), 4-((2S)-4-cyclopropyl-1-((5-methoxy-7-methyl-1H-indol-4-yl)methyl)piperidin-2-yl)benzoic acid] here?
A: Its IC50 is less than 200 nM.

Q: And the bioavailability [2]?
A: The bioavailability was 81.5%.

Q: What about the AUC(0-t) [2] of the same compound?
A: The AUC(0-t) was 15900 ng·h/mL.

Q: And the bioavailability [3]?
A: Its bioavailability is 62.6%.

Q: And the AUC(0-t) [3]?
A: Its AUC(0-t) is 49300 ng·h/mL.

Q: What about the half-life [3] of the same compound?
A: Its half-life is 1250 min.

Q: And the bioavailability in monkeys [4]?
A: The bioavailability in monkeys was “higher”.

Q: What about the “oral exposure in monkeys” value [4] of the same compound?
A: The value was “higher”.

Q: What about the Papp A→B at 2 h, 2 μM (Caco2 permeability test) of the same compound?
A: The Papp A→B at 2 h, 2 μM was 2.17 ×10⁻⁶ cm/s.

Q: And the Papp B→A at 2 h, 2 μM (Caco2 permeability test)?
A: The Papp B→A at 2 h, 2 μM was 23.9 ×10⁻⁶ cm/s.

Q: And the permeability (Caco-2 cells)?
A: Its permeability is “better”.

Q: What about the “Remaining % (T = 60 min) HLM0.5” value [5] of the same compound?
A: Its value is greater than 90%.

Q: And the “Remaining % (T = 60 min) CLM0.5” value [6]?
A: The value was greater than 90%.

Q: What about the “Remaining % (T = 60 min) DLM0.5” value [7] of the same compound?
A: The value was greater than 90%.

Q: What about the “Remaining % (T = 60 min) RLM0.5” value [8] of the same compound?
A: Its value is greater than 90%.

Q: And the “Remaining % (T = 60 min) MouLM0.5” value [9]?
A: The value was greater than 90%.
